The record followed here is patent EP0321368A1, “Heterocyclic N-carbamoyl, N-thiocarbamoyl or N-amidino-aminomalonyl or -aminosuccinyl amide derivatives as sweetening agents” (NOFRE, Claude, priority 1987, dated 1989).

Values after ≈ are worked out from the molar mass of the structure shown.

Data set [1] concerns goûteurs expérimentés. The data set can be described thus: Sweetening power judged by a panel of eight experienced tasters against a sucrose reference solution. It is filed as in vivo. The settings on record: for pouvoir édulcorant: weight basis. The source says: Le pouvoir édulcorant des composés ainsi préparés a été évalué par un groupe de huit goûteurs expérimentés. Pour cela, les composés, en solution aqueuse à des concentrations variables, sont comparés, sur le plan gustatif, à une solution témoin de saccharose à 2 % et dans certains cas à 5 % et 10 ^o/o, c'est-à-dire à des concentrations correspondant à celles utilisées lors d'un usage courant. Le pouvoir sucrant des édulcorants de synthèse varie en effet suivant la concentration de la solution de saccharose utilisée comme référence. Le pouvoir édulcorant du composé testé par rapport au saccharose correspond alors au rapport pondéral qui existe entre le composé et le saccharose à égale intensité édulcorante, c'est-à-dire quand les saveurs sucrées de la solution du composé testé et de la solution témoin de saccharose sont considérées, par une majorité de goûteurs, avoir la meme intensité édulcorante.

Data set [2] can be described thus: Solubility in water at pH 3 (phosphate buffer) near 0 °C, saturated filtrate assayed by HPLC. It is filed as physicochemical. The conditions noted are these: for solubility at 1 h: aqueous buffer, pH 3 (phosphate buffer), 0° C, read-out: solubilité; for solubilité, fois plus élevée que celle de l'analogue carbocyclique 4-cyanophényle: ratio to exemple 4 of EP-B-0107597, pH 3, 0° C. The procedure:
La solubilité a été mesurée de manière suivante. On met en suspension dans l'eau à pH 3 (tampon phosphate) et à température voisine de 0° C (ce qui correspond aux conditions de préparation et de stockage des boissons gazeuses) un excès du composé dont veut déterminer la solubilité. On soumet alors la suspension, toujours dans un bain de glace, à l'action des ultrasons pendant 60 min, puis on filtre (sur filtre Millipore Millex-HV 0,45 micromètre). Le composé, qui se trouve ainsi dissous à saturation dans le filtrat, est dosé par chromatographie liquide haute performance (HPLC) par rapport à une solution de référence de concentration connue.

[3] abbreviates: compared with a 2 % sucrose solution.

With `COC(=O)[C@H](Cc1ccccc1)NC(=O)[C@H](CC(=O)O)NC(=O)Nc1cccnc1` [Exemple 1, N-(3-pyridylcarbamoyl)-L-aspartyl-L-phénylalanine méthyl ester], the “pouvoir édulcorant” value in data set [1] (setting [3]) is approximately 100 fois celui du saccharose. Still for that read-out and setting: next, `COC(=O)[C@H](Cc1ccccc1)NC(=O)[C@H](CC(=O)O)NC(=S)Nc1cccnc1` [Exemple 2, N-(3-pyridylthiocarbamoyl)-L-aspartyl-L-phénylalanine méthyl ester]: ~1 000 fois celui du saccharose; `COC(=O)[C@H](Cc1ccccc1)NC(=O)[C@H](CC(=O)O)NC(=O)Nc1ccc(Cl)nc1` [Exemple 3, N-(2-chloro-5-pyridylcarbamoyl)-L-aspartyl-L-phénylalanine méthyl ester]: approximately 500 fois celui du saccharose. Take `COC(=O)[C@H](Cc1ccccc1)NC(=O)[C@H](CC(=O)O)NC(=O)Nc1ccc(C#N)nc1` [Exemple 4, N-(2-cyano-5-pyridylcarbamoyl)-L-aspartyl-L-phénylalanine méthyl ester]: in data set [1] (concentration of the sucrose reference not given), the “fois plus sucré que le saccharose” value was 8 000 fois. In addition, the “pouvoir édulcorant” value is ~8 000 fois celui du saccharose in data set [1] (setting [3]), ~6 000 fois in data set [1] (compared with a 5 % sucrose solution) and ~4 000 fois in data set [1] (compared with a 10 % sucrose solution). In addition, the solubility at 1 h in data set [2] was approximately 70 µg/mL (≈ 159 µM). The “solubilité, fois plus élevée que celle de l'analogue carbocyclique 4-cyanophényle” value in data set [2] is given as ~3,5 fois.

As to `N#Cc1ccc(NC(=O)N[C@@H](CC(=O)O)C(=O)NC(c2ccccc2)c2ccco2)cn1` (stereo partly drawn) [Exemple 5, acide N-(2-cyano-5-pyridylcarbamoyl)-L-aspartique N-[(RS)-alpha-(2-furyl)benzyl] alpha-monoamide], in data set [1] (setting [3]), the “pouvoir édulcorant” value is approximately 700 fois celui du saccharose. Still for that read-out and setting: next, `COC(=O)[C@H](Cc1ccccc1)NC(=O)[C@H](CC(=O)O)NC(=S)Nc1ccc(OC)nc1` [Exemple 6, N-(2-méthoxy-5-pyridylthiocarbamoyl)-L-aspartyl-L-phénylalanine méthyl ester]: ~1 400 fois celui du saccharose; `COC(=O)[C@H](Cc1ccccc1)NC(=O)[C@H](CC(=O)O)NC(=S)Nc1cnc(C#N)nc1` [Exemple 7, N-(2-cyano-5-pyrimidinylthiocarbamoyl)-L-aspartyl-L-phénylalanine méthyl ester]: ~50 000 fois celui du saccharose.

As to `COC(=O)[C@H](Cc1ccccc1)NC(=O)[C@H](CC(=O)O)NC(=O)Nc1ccc2nonc2c1` [Exemple 8, N-(5-benzofurazanylcarbamoyl)-L-aspartyl-L-phénylalanine méthyl ester], in data set [1] (setting [3]), the “pouvoir édulcorant” value is ~5 000 fois celui du saccharose. In addition, in data set [2], the solubility at 1 h is approximately 180 µg/mL (≈ 395 µM) and the “solubilité, fois plus élevée que celle de l'analogue carbocyclique 4-cyanophényle” value is approximately 9 fois. As to `COC(=O)[C@H](Cc1ccccc1)NC(=O)[C@H](CC(=O)O)NC(=O)Nc1ccc2c(c1)no[n+]2[O-]` [Exemple 9, N-(1-oxyde-5-benzofurazanylcarbamoyl)-L-aspartyl-L-phénylalanine méthyl ester], the “pouvoir édulcorant” value in data set [1] (setting [3]) was ~2 000 fois celui du saccharose. With `COC(=O)[C@H](Cc1ccccc1)NC(=O)[C@H](CC(=O)O)NC(=O)Nc1ccc2nsnc2c1` [Exemple 10, N-(5-benzothiofurazanylcarbamoyl)-L-aspartyl-L-phénylalanine méthyl ester], the “pouvoir édulcorant” value in data set [1] (setting [3]) is reported as approximately 500 fois celui du saccharose.

Take `COC(=O)[C@H](Cc1ccccc1)NC(=O)[C@H](CC(=O)O)NC(=O)Nc1ccc2c(c1)OCO2` [Exemple 11, N-(3,4-méthylènedioxyphénylcarbamoyl)-L-aspartyl-L-phénylalanine méthyl ester]: the “pouvoir édulcorant” value in data set [1] (setting [3]) is listed as approximately 50 fois celui du saccharose. Consider `COC(=O)[C@H](Cc1ccccc1)NC(=O)[C@H](CC(=O)O)NC(=O)Nc1ccc(C#N)cc1` [exemple 4 du brevet EP-B-0107597, reference compound], for which the solubility at 1 h in data set [2] was approximately 20 µg/mL (≈ 45.6 µM).
